The record followed here is patent US20070213339A1 (Bayer Pharmaceuticals Corporation, priority 2004, published 2007).

Some results are limits rather than exact numbers.

This test deals with Colo205 human colon carcinoma cell line. In words: In vitro tumor cell proliferation assay (MTS, CellTiter 96 Aqueous One Solution). It counts as cell-based. As to conditions: COLO 205, Colo205 cells, 72 hours compound exposure, MTS absorbance at 490 nm, read-out: IC50 (concentration of test compound required to inhibit proliferation of 50% of the cells). The method, boiled down: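 Colo205 cells seeded at 2000 cells/well in RPMI-1640 with 10% serum, exposed to compound for 72 h at 37 °C, 5% CO2, in a 5-point dose-response up to 10-20 μM. Viability read by MTS absorbance at 490 nm; IC50 from background-corrected percent inhibition by linear regression.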
Turning to `CN(C)Cc1ccc(-n2cc(C(=O)O)c(=O)c3cc(F)c(N4CCN(c5cccc(Cl)c5)CC4)c(OC(F)(F)F)c32)cc1` [Example 130, 7-[4-(3-chlorophenyl)piperazin-1-yl]-1-{4-[(dimethylamino)methyl]phenyl}-6-fluoro-4-oxo-8-(trifluoromethoxy)-1,4-dihydroquinoline-3-carboxylic acid], the IC50 was below 500 nM.
In the case of `COc1c(N2CCN(c3ncccn3)CC2)c(F)cc2c(=O)c(C(=O)O)cn(-c3ccc(CN4CCCCC4)cc3)c12` [Example 193, 6-fluoro-8-methoxy-4-oxo-1-(4-piperidin-1-ylmethyl-phenyl)-7-(4-pyrimidine-2-yl-piperazine-1-yl]-1,4-dihydroquinoline-3-carboxylic acid], the IC50 is below 500 nM.
The figure for `O=C(O)c1cn(-c2ccc(CNC3CCCCC3)cc2)c2c(Cl)c(N3CCN(c4ccccn4)CC3)c(F)cc2c1=O` [Example 171, 8-chloro-1-(4-cyclohexylaminomethyl-phenyl)-6-fluoro-4-oxo-7-(4-pyridin-2-yl-piperazin-1-yl)-1,4-dihydroquinoline-3-carboxylic acid] is below 500 nM; for `O=C(O)c1cn(-c2ccc(CN3CCCC3)cc2)c2c(Cl)c(N3CCN(c4ccc(Cl)cc4)CC3)c(F)cc2c1=O` [Example 3, 8-chloro-6-fluoro-7-[4-(4-chlorophenyl)-piperazin-1-yl]-4-oxo-1-[4-(pyrrolidin-1-ylmethyl)phenyl]-1,4-dihydroquinoline-3-carboxylic acid] it is 500 to 2000 nM; for `O=C(O)c1cn(-c2ccc(CN3CCCC3)nc2)c2c(Cl)c(N3CCN(c4ncccn4)CC3)c(F)cc2c1=O` [Example 33, 8-chloro-6-fluoro-4-oxo-7-(4-pyrimidin-2-ylpiperazin-1-yl)-1-[6-(pyrrolidin-1-ylmethyl)pyridin-3-yl]-1,4-dihydroquinoline-3-carboxylic acid] it is 2000 to 20000 nM.
With `COc1c(N2CCN(c3ncccn3)CC2)c(F)cc2c(=O)c(C(=O)O)cn(-c3ccc(CN(C)C)cc3)c12` [Example 96, 1-{4-[(dimethylamino)methyl]phenyl}-6-fluoro-8-methoxy-4-oxo-7-(4-pyrimidin-2-ylpiperazin-1-yl)-1,4-dihydroquinoline-3-carboxylic acid], the IC50 was below 500 nM.
Consider `O=C(O)c1cn(-c2ccc(CN3CCCC3)cc2)c2c(Cl)c(N3CCN(c4ncccn4)CC3)c(F)cc2c1=O` [Example 6, 8-chloro-6-fluoro-4-oxo-7-(4-pyrimidin-2-ylpiperazin-1-yl)-1-[4-(pyrrolidin-1-ylmethyl)phenyl]-1,4-dihydroquinoline-3-carboxylic acid], for which the IC50 was below 500 nM.
The figure for `O=C(O)c1cn(-c2ccc(CN3CCCC3)c(F)c2)c2c(Cl)c(N3CCN(c4ccc(Cl)cc4)CC3)c(F)cc2c1=O` [Example 187, 8-chloro-7-[4-(4-chlorophenyl)-piperazine-1-yl]-6-fluoro-1-(3-fluoro-4-pyrrolidin-1-ylmethyl-phenyl)-4-oxo-1,4-dihydroquinoline-3-carboxylic acid] is below 500 nM.
The figure for `O=C(O)c1cn(-c2ccc(CN3CCCC3)nc2)c2c(Cl)c(N3CCN(c4ccc(Cl)cc4)CC3)c(F)cc2c1=O` [Example 38, 8-chloro-7-[4-(4-chlorophenyl)piperazin-1-yl]-6-fluoro-4-oxo-1-[6-(pyrrolidin-1-ylmethyl)pyridin-3-yl]-1,4-dihydroquinoline-3-carboxylic acid] is below 500 nM.
Take `COc1c(N2CCN(c3ccc(F)cc3F)CC2)c(F)cc2c(=O)c(C(=O)O)cn(-c3ccc(CN4CCCC4)cc3)c12` [Example 76, 7-[4-(2,4-difluorophenyl)piperazin-1-yl]-6-fluoro-8-methoxy-4-oxo-1-[4-(pyrrolidin-1-ylmethyl)phenyl]-1,4-dihydroquinoline-3-carboxylic acid]: the IC50 is 500 to 2000 nM.
The figure for `CN(C)Cc1ccc(-n2cc(C(=O)O)c(=O)c3cc(F)c(N4CCN(c5ncccc5C#N)CC4)c(OC(F)(F)Cl)c32)cc1` [Example 158, 8-[chloro(difluoro)methoxy]-7-[4-(3-cyanopyridin-2-yl)piperazin-1-yl]-1-{4-[(dimethylamino)methyl]phenyl}-6-fluoro-4-oxo-1,4-dihydroquinoline-3-carboxylic acid] is below 500 nM; for `CCN(CC)Cc1ccc(-n2cc(C(=O)O)c(=O)c3cc(F)c(N4CCN(c5ccccc5F)CC4)c(OC)c32)cc1` [Example 114, 1-{4-[(diethylamino)methyl]phenyl}-6-fluoro-7-[4-(2-fluorophenyl)piperazin-1-yl]-8-methoxy-4-oxo-1,4-dihydroquinoline-3-carboxylic acid] it is below 500 nM.
As to `CC1CCC(C)N1Cc1ccc(-n2cc(C(=O)O)c(=O)c3cc(F)c(N4CCN(c5ccccn5)CC4)c(Cl)c32)cc1` (stereo not shown) [Example 19, 8-chloro-1-{4-[(2,5-dimethylpyrrolidin-1-yl)methyl]phenyl}-6-fluoro-4-oxo-7-(4-pyridin-2-ylpiperazin-1-yl)-1,4-dihydroquinoline-3-carboxylic acid], the IC50 was below 500 nM.
On to `O=C(O)c1cn(-c2ccc(CN3CCCC3)cc2)c2c(OC(F)(F)Cl)c(N3CCN(c4ccc(Cl)cc4)CC3)c(F)cc2c1=O` [Example 148, 8-[chloro(difluoro)methoxy]-7-[4-(4-chlorophenyl)piperazin-1-yl]-6-fluoro-4-oxo-1-[4-(pyrrolidin-1-ylmethyl)phenyl]-1,4-dihydroquinoline-3-carboxylic acid], for which the IC50 is below 500 nM.
The figure for `CCN(C)Cc1ccc(-n2cc(C(=O)O)c(=O)c3cc(F)c(N4CCN(c5ncccn5)CC4)c(OC(F)(F)Cl)c32)cc1` [Example 165, 8-[chloro(difluoro)methoxy]-1-(4-{[ethyl(methyl)amino]methyl}phenyl)-6-fluoro-4-oxo-7-(4-pyrimidin-2-ylpiperazin-1-yl)-1,4-dihydroquinoline-3-carboxylic acid] is below 500 nM.
Take `COc1cc(CNC2CCCC2)ccc1-n1cc(C(=O)O)c(=O)c2cc(F)c(N3CCN(c4ccc(F)cc4)CC3)c(Cl)c21` [Example 179, 8-chloro-1-(4-cyclopentylaminomethyl-2-methoxyphenyl)-6-fluoro-7-[4-(4-fluorophenyl)-piperazine-1-yl]-4-oxo-1,4-dihydroquinoline-3-carboxylic acid]: the IC50 is 500 to 2000 nM.
With `O=C(O)c1cn(-c2ccc(CN3CCCC3)cc2)c2c(OC(F)(F)Cl)c(N3CCN(c4ccccn4)CC3)c(F)cc2c1=O` [Example 146, 8-[chloro(difluoro)methoxy]-6-fluoro-4-oxo-7-(4-pyridin-2-ylpiperazin-1-yl)-1-[4-(pyrrolidin-1-ylmethyl)phenyl]-1,4-dihydroquinoline-3-carboxylic acid], the IC50 was below 500 nM.
As to `O=C(O)c1cn(-c2ccc(CN3CCCC3)cc2)c2c(Cl)c(N3CCN(c4ncccc4C(F)(F)F)CC3)c(F)cc2c1=O` [Example 14, 8-chloro-6-fluoro-4-oxo-1-[4-(pyrrolidin-1-yl-methyl)phenyl]-7-{4-[3-(trifluoromethyl)pyridin-2-yl]piperazin-1-yl}-1,4-dihydroquinoline-3-carboxylic acid], the IC50 lay within 500 to 2000 nM.
The figure for `CCN(CC)Cc1ccc(-n2cc(C(=O)O)c(=O)c3cc(F)c(N4CCN(c5cccc(Cl)c5)CC4)c(OC(F)(F)F)c32)cc1` [Example 136, 7-[4-(3-chlorophenyl)piperazin-1-yl]-1-{4-[(diethylamino)methyl]phenyl}-6-fluoro-4-oxo-8-(trifluoromethoxy)-1,4-dihydroquinoline-3-carboxylic acid] is below 500 nM; for `COC[C@@H]1CCCN1Cc1ccc(-n2cc(C(=O)O)c(=O)c3cc(F)c(N4CCN(c5ncccn5)CC4)c(Cl)c32)cc1` [Example 26, 8-chloro-6-fluoro-1-(4-{[(2S)-2-(methoxy-methyl)pyrrolidin-1-yl]methyl}phenyl)-4-oxo-7-(4-pyrimidin-2-ylpiperazin-1-yl)-1,4-dihydroquinoline-3-carboxylic acid] it is below 500 nM; for `CCN(CC)Cc1ccc(-n2cc(C(=O)O)c(=O)c3cc(F)c(N4CCN(c5ccc(C(C)=O)cc5)CC4)c(OC)c32)cc1` [Example 116, 7-[4-(4-acetylphenyl)piperazin-1-yl]-1-{4-[(diethylamino)methyl]phenyl}-6-fluoro-8-methoxy-4-oxo-1,4-dihydroquinoline-3-carboxylic acid] it is below 500 nM.
The value for `O=C(O)c1cn(-c2ccc(CNC3CCC3)cc2)c2c(Cl)c(N3CCN(c4ncccn4)CC3)c(F)cc2c1=O` [Example 191, 8-chloro-1-(4-cyclobutylaminomethyl-phenyl)-6-fluoro-4-oxo-7-(4-pyrimidin-2-yl-piperazin-1-yl)-1,4-dihydroquinoline-3-carboxylic acid] was below 500 nM; that for `CN(C)Cc1ccc(-n2cc(C(=O)O)c(=O)c3cc(F)c(N4CCN(c5ccccn5)CC4)c(OC(F)(F)Cl)c32)cc1` [Example 154, 8-[chloro(difluoro)methoxy]-1-{4-[(dimethylamino)methyl]phenyl}-6-fluoro-4-oxo-7-(4-pyridin-2-ylpiperazin-1-yl)-1,4-dihydroquinoline-3-carboxylic acid] was below 500 nM; that for `O=C(O)c1cn(-c2ccc(CNC3CCCC3)cc2)c2c(OC(F)(F)Cl)c(N3CCN(c4ccc(F)cc4)CC3)c(F)cc2c1=O` [Example 181, 8-(chloro-difluoromethoxy)-1-(4-cyclopentylaminomethyl-phenyl)-6-fluoro-4-oxo-7-[4(4-fluorophenyl)piperazine-1-yl]-1,4-dihydroquinoline-3-carboxylic acid] was below 500 nM.
The value for `O=C(O)c1cn(-c2ccc(CN3CCCC3)cc2F)c2c(Cl)c(N3CCN(c4ccc(F)cc4)CC3)c(F)cc2c1=O` [Example 41, 8-chloro-6-fluoro-7-[4-(4-fluorophenyl)-piperazin-1-yl]-1-[2-fluoro-4-(pyrrolidin-1-ylmethyl)phenyl]-4-oxo-1,4-dihydroquinoline-3-carboxylic acid] was below 500 nM.
